Experiment: xn = mol fraction of the nth substance listed
Details: 100 kPa, Liquid; for speed of sound: Frequency=2 MHz, Linear variable-path acoustic interferometer; for mass density: Vibrating tube method

CCCCOCCO [2-butoxyethan-1-ol] + OCc1ccccc1
Details | mass density, 298.15 K [kg/m3] | mass density, 303.15 K [kg/m3] | mass density, 308.15 K [kg/m3] | mass density, 313.15 K [kg/m3] | mass density, 318.15 K [kg/m3] | speed of sound, 298.15 K [m/s] | speed of sound, 308.15 K [m/s]
x2 = 0 | 896.46 | 892.22 | 887.97 | 883.7 | 879.42 | 1305 | 1275
x2 = 0.1042 | 909.14 | 904.89 | 900.6 | 896.2 | 891.93 | 1329 | 1296
x2 = 0.2038 | 921.94 | 917.61 | 913.28 | 908.82 | 904.49 | 1352 | 1317
x2 = 0.299 | 934.77 | 930.34 | 925.95 | 921.47 | 917.11 | 1373 | 1337
x2 = 0.3902 | 947.51 | 942.98 | 938.56 | 934.1 | 929.63 | 1394 | 1356
x2 = 0.4776 | 960.11 | 955.52 | 951.03 | 946.55 | 942.13 | 1413 | 1375
x2 = 0.5614 | 972.47 | 967.75 | 963.31 | 958.86 | 954.41 | 1433 | 1394
x2 = 0.6418 | 984.52 | 979.84 | 975.34 | 970.91 | 966.56 | 1452 | 1412
x2 = 0.7191 | 996.35 | 991.7 | 987.22 | 982.84 | 978.55 | 1470 | 1430
x2 = 0.7933 | 1007.85 | 1003.3 | 998.89 | 994.59 | 990.4 | 1486 | 1446
x2 = 0.8648 | 1019.13 | 1014.73 | 1010.48 | 1006.26 | 1002.24 | 1503 | 1463
x2 = 0.9336 | 1030.15 | 1025.98 | 1021.88 | 1017.81 | 1013.89 | 1519 | 1479

OCc1ccccc1 [benzenemethanol] + COCCO
Details | mass density, 298.15 K [kg/m3] | mass density, 303.15 K [kg/m3] | mass density, 308.15 K [kg/m3] | mass density, 313.15 K [kg/m3] | mass density, 318.15 K [kg/m3] | speed of sound, 298.15 K [m/s] | speed of sound, 308.15 K [m/s]
x1 = 0.0979 | 974.27 | 969.06 | 963.98 | 958.77 | 953.4 | 1359 | 1319
x1 = 0.1928 | 985.51 | 980.26 | 975.04 | 969.7 | 964.14 | 1377 | 1337
x1 = 0.2847 | 995 | 989.74 | 984.55 | 979.32 | 973.82 | 1395 | 1354
x1 = 0.3739 | 1003.23 | 998.13 | 992.96 | 987.81 | 982.44 | 1413 | 1371
x1 = 0.4604 | 1010.46 | 1005.46 | 1000.42 | 995.25 | 990.02 | 1430 | 1388
x1 = 0.5443 | 1016.87 | 1011.91 | 1006.93 | 1001.91 | 996.67 | 1447 | 1405
x1 = 0.6258 | 1022.61 | 1017.7 | 1012.79 | 1007.81 | 1002.65 | 1463 | 1421
x1 = 0.7049 | 1027.69 | 1022.84 | 1018.04 | 1013.09 | 1007.91 | 1478 | 1437
x1 = 0.7818 | 1032.17 | 1027.39 | 1022.66 | 1017.74 | 1012.63 | 1493 | 1452
x1 = 0.8565 | 1035.9 | 1031.28 | 1026.79 | 1022.07 | 1017.05 | 1507 | 1467
x1 = 0.9292 | 1038.94 | 1034.49 | 1030.32 | 1025.92 | 1021.35 | 1521 | 1482
x1 = 1 | 1041.05 | 1037.15 | 1033.32 | 1029.46 | 1025.59 | 1534.5 | 1496

CCOCCO [2-ethoxyethan-1-ol] + OCc1ccccc1
Details | mass density, 298.15 K [kg/m3] | mass density, 303.15 K [kg/m3] | mass density, 308.15 K [kg/m3] | mass density, 313.15 K [kg/m3] | mass density, 318.15 K [kg/m3] | speed of sound, 298.15 K [m/s] | speed of sound, 308.15 K [m/s]
x2 = 0 | 925.36 | 920.72 | 916.11 | 911.47 | 906.9 | 1301.4 | 1274.8
x2 = 0.0793 | 936.7 | 931.63 | 926.88 | 922.19 | 917.52 | 1320 | 1291
x2 = 0.1593 | 947.73 | 942.59 | 937.61 | 932.97 | 928.22 | 1339 | 1308
x2 = 0.2401 | 958.4 | 953.27 | 948.33 | 943.6 | 938.75 | 1358 | 1325
x2 = 0.3215 | 968.73 | 963.72 | 958.87 | 954.15 | 949.14 | 1378 | 1342
x2 = 0.4037 | 978.84 | 973.92 | 969.17 | 964.42 | 959.34 | 1399 | 1360
x2 = 0.4866 | 988.63 | 983.76 | 979.06 | 974.35 | 969.28 | 1419 | 1379
x2 = 0.5703 | 998.17 | 993.33 | 988.65 | 984.06 | 979.07 | 1440 | 1398
x2 = 0.6547 | 1007.45 | 1002.6 | 997.97 | 993.39 | 988.67 | 1460 | 1417
x2 = 0.7398 | 1016.35 | 1011.53 | 1006.89 | 1002.53 | 998.04 | 1480 | 1437
x2 = 0.8257 | 1024.9 | 1020.21 | 1015.71 | 1011.52 | 1007.24 | 1499 | 1456
x2 = 0.9125 | 1033.23 | 1028.71 | 1024.47 | 1020.44 | 1016.45 | 1517 | 1476

From the NIST ThermoML archive (doi:10.1016/j.jct.2015.08.040)
